Data as given in patent publication US7745474B2, “Imidazole derivatives for the treatment of gastrointestinal disorders” (AstraZeneca AB, priority 2005, dated 2010).

Biological target: T1, GABAB receptor (GABABR1a/GABABR2 heterodimer) (Homo sapiens, UniProt O75899+Q9UBS5)
T1 construct: expressed in transfected cells
Assay: [35S]-GTPγS binding assay, potency of positive allosteric modulator on GABA EC50
Type: biochemical
Settings: potency of the modulator: concentration required to reduce GABA's EC50 by 50%
Excerpt: GABABR1a and GABABR2 were cloned from human brain cDNA and subcloned into pCI-Neo (Promega) and pALTER-1 (Promega), respectively. A GABABR1a-Gαqi5 fusion protein expression vector was constructed using the pCI-Neo-GABABR1a cDNA plasmid and pLEC1-Gαqi5 (Molecular Devices, CA). In order to make the Gαqi5 pertussis toxin insensitive, Cys356 was mutated to Gly using standard PCR methodology with the primers 5′-[…]-3 (forward) and 5′-GCGGCCG […]-3′ (reverse). The Gαqi5mut cDNA was ligated into the BamnHI and NotI sites of pcDNA3.0 (Invitrogen). The GABABR1a coding sequence was amplified by PCR from pCI-Neo-GABABR1a using the primers, 5′-[…]-3′ (forward) and 5′-[…]-3′ (reverse) and subdloned into the BamHI site of pcDNA3.0-Gαqi5mut.
For generation of stable cell lines, CHO-K1 cells were grown in Nut mix F-12 (Ham) media supplemented with 10% FBS, 100 U/ml Penicillin and 100 μg/nl Streptomycin at 37° C. in a humidified CO2-incubator. […]
[^35S]-GTPγS binding assays were performed at 30° C. for 45 min in membrane buffer (100 mM NaCl, […], 1 mM EDTA, 50 mM HEPES, pH 7.4) containing 0.025 μg/μl of membrane protein (prepared from the cell lines described above) with 0.01% bovine serum albumin (fatty acid free), 10 μM GDP, 100 μM DTT and 0.53 nM [^35S]-GTPγS (Amersham-Pharmacia Biotech) in a final volume of 200 μl. Nonspecific binding was determined in the presence of 20 μM GTPγS. […]

T1 sequence (Q9UBS5 15-961 limits assumed): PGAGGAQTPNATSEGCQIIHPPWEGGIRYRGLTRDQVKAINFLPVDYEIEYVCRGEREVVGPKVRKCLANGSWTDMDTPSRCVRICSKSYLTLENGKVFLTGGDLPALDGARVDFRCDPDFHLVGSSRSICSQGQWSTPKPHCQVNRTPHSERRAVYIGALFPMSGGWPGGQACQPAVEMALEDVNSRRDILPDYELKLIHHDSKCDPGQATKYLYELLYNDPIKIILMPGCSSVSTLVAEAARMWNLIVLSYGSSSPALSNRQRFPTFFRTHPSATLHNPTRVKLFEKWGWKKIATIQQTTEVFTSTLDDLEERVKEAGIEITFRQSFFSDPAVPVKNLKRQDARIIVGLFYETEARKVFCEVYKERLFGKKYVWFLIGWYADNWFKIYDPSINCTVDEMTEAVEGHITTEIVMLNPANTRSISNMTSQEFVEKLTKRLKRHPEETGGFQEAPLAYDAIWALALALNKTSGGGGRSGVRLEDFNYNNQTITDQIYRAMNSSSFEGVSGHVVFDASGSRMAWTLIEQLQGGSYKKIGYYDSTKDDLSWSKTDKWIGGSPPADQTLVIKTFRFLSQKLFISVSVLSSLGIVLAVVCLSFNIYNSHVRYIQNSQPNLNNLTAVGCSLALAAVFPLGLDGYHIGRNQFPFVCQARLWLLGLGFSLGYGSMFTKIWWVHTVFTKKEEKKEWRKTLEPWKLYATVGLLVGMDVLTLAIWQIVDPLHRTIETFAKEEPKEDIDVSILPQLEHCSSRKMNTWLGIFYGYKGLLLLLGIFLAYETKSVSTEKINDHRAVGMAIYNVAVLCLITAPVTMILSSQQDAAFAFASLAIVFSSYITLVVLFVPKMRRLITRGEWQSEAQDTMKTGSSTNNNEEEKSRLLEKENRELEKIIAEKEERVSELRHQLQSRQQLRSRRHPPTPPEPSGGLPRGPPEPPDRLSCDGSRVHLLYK
T1 sequence (O75899 42-941): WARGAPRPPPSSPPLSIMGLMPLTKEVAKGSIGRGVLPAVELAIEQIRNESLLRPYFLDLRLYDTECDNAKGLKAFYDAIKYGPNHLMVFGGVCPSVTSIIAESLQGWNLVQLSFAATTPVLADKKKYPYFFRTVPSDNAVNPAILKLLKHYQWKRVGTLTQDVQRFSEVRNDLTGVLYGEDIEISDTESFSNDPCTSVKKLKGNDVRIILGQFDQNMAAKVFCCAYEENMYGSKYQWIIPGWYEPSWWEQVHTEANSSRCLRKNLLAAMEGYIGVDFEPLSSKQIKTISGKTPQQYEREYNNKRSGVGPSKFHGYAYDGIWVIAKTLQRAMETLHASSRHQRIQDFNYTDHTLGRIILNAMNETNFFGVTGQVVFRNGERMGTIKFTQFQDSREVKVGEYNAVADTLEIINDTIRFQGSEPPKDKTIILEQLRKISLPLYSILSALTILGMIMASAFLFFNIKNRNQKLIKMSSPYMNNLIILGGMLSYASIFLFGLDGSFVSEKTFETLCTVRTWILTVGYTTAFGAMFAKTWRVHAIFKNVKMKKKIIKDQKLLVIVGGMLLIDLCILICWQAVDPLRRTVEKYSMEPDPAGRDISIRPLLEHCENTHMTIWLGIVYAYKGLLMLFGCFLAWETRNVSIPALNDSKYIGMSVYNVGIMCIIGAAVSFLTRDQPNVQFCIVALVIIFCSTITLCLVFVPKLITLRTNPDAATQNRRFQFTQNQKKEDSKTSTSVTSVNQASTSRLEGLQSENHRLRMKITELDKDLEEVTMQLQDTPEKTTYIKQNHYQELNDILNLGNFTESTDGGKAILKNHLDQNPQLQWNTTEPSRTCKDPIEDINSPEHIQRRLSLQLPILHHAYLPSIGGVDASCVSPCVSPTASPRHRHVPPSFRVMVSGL

| EC50 [µM] | SMILES |
| --- | --- |
| 2.27 | CN(C)c1nc(NC(=S)C2COc3ccccc3O2)c(C(=O)OC(C)(C)C)n1-c1ccccc1 (centres unmarked) [Example 6, tert-butyl 4-[(2,3-dihydro-1,4-benzodioxin-2-ylcarbonothioyl)amino]-2-(dimethylamino)-1-phenyl-1H-imidazole-5-carboxylate] |
| 2.38 | CN(C)c1nc(/N=C(/c2ccc(Cl)cc2)N2CCCC2)c(C(=O)OC(C)(C)C)n1-c1ccccc1 [Example 2, tert-butyl 4-{[(1Z)-(4-chlorophenyl)(pyrrolidin-1-yl)methylene]amino}-2-(dimethylamino)-1-phenyl-1H-imidazole-5-carboxylate] |
